Data: paper PMC11540889, “In Vitro Cytotoxicity of Fluorinated Quaternary Ammonium Salts in Colorectal Cancer Cells and In Silico Pharmacology” (Advances in Pharmacological and Pharmaceutical Sciences, 2024)

Legend:
[1] = MTT cytotoxicity, peripheral blood mononuclear cells; format: cell-based; settings: human, peripheral blood mononuclear cells (PBMC); PBMC, nontumoral control, MTT, 48 h, mean ± SD
Method: (§1) The compounds were solubilized in dimethyl sulfoxide (DMSO, Fischer Chemical, NJ, USA) at 50,000 μg/mL and stored at −20°C until use. From the stock solution, six serial 1:2 double dilutions of each compound were prepared to start with concentrations of 100, 50, 25, 12.5, 6.25, and 3.125 μg/mL, respectively. 5-FU, one of the conventional drugs to treat CRC [34], was used as an antitumor compound control at concentrations ranging between 800 and 0.625 μM.
(§2) SW948 (Dukes' Type C, Grade III, premetastatic colorectal adenocarcinoma—CCL-237), SW48 (Dukes' Type C, Grade IV, noninvasive colorectal adenocarcinoma—CCL231), and SW620 (Dukes' Type C, Grade IV invasive colorectal adenocarcinoma—CCL227) (American Type Culture Collection Manassas, VA, USA) were maintained in standard conditions at 37°C, without a CO2 atmosphere. PBMCs and MCRT were used as nontumoral control cells. PBMCs were obtained by healthy donors, separated using Histopaque-1077 (Sigma-Aldrich) and cultured in RPMI-1640 medium (Sigma-Aldrich) supplemented with 10% SFB and 1% penicillin/streptomycin [46]. In turn, MCRT were obtained from healthy BALB/c mice; for this, mice were euthanized with CO2 after previous sedation, the colorectal tissue removed, cleaned up, and cut into 2 × 2 mm pieces, suspended in supplemented DMEM, and used immediately after collection. […] Moreover, the inclusion of PBMC also served to assess the systemic toxicity of FQAS.
(§3) The cytotoxic activity of synthesized FQASs and QASs was studied by measuring cell viability/mortality, determined with the MTT (3-(4,5-dimethylthiazol-2-yl)-2,5-diphenyl tetrazole bromide) method (VWR Chemicals and Reagents Avantor), upon exposure of each cell line to six serial dilutions of the different compounds independently. Unexposed cells were included as viability controls, and cells exposed to 5-FU were included as cytotoxicity controls. Briefly, cells were adjusted to 200,000 cells/mL in the corresponding supplemented culture medium, and 100 μL (20,000 cells/well) were dispensed into each 96-well cell culture plate (Nunc, Thermo Fisher Scientific). Twelve hours after seeding the monolayer, 100 μL dilution of each compound was added to each well; the plates containing CRC were incubated at 37°C in the absence of CO2, while plates with PBMCs and MCRT were incubated at 37°C and 5% CO2 atmosphere. For MCRT, each piece was placed into each well of a 96-well plate and exposed to each dilution of the FQASs and QASs. After 48 h of incubation, 30 μL/well of MTT (5 mg/mL) was added, and plates were left at 37°C for 3 h, protected from light. After this time, 100 μL/well of DMSO was added to solubilize the formazan crystals formed. Plates were read at 570 nm on a Varioskan plate reader (Thermo Fisher), and nonspecific absorbance was corrected by subtracting the optical densities (OD) of the blank solutions corresponding to the supplemented culture media (RPMI 1640, DMEM, or L-15 media) and 0.5% DMSO. Each concentration of the FQASs, QASs, and controls was evaluated in duplicate in three independent experiments.
(§4) The percentages of viability (equation (1)) and mortality (equation (2)) were calculated with the net OD:(1) % viability=OD treated cell÷nontreated cells×100, (2) % mortality=100−% viability.
(§5) The %mortality data for each compound concentration was recorded, and the median cytotoxic concentration (CC50), corresponding to the concentration at which 50% of cell death occurs, was calculated using GraphPad Prism 8 software (GraphPad, Software, Inc., La Jolla, CA, USA). […] Lastly, the index of selectivity (IS) was calculated by dividing the CC50 value obtained for control cells (MCRT and PBMCs) by the CC50 value obtained for each CRC cell phenotype using the formula: IS = CC50 (MCRT or PBMC) ÷ CC50 (SW948, SW48 or SW620).

[2] = tested on: peripheral blood mononuclear cells (PBMC); assay: as above; format: cell-based; settings: PBMCs
Method: as §1, §2, §3, §4, §5

[3] = tested on: CRC cell lines SW48, SW620, and SW948; assay: MTT cytotoxicity across CRC cell lines (pooled statements, selectivity between lines); format: cell-based; settings: for Index of selectivity SW48 vs. SW620: IS = CC50 SW48 ÷ CC50 SW620; for Index of selectivity SW948 vs. SW48: IS = CC50 SW948 ÷ CC50 SW48; for Index of selectivity SW948 vs. SW620: IS = CC50 SW948 ÷ CC50 SW620
Method: as §1, §2, §3, §4
The %mortality data for each compound concentration was recorded, and the median cytotoxic concentration (CC50), corresponding to the concentration at which 50% of cell death occurs, was calculated using GraphPad Prism 8 software (GraphPad, Software, Inc., La Jolla, CA, USA). […]

[4] = tested on: SW48 (Dukes' Type C, Grade IV, noninvasive colorectal adenocarcinoma); assay: MTT cytotoxicity, SW48 cells; settings: for CC50: Homo sapiens, SW48, 48 h, SW48 cells, MTT, 48 h, mean ± SD; for Index of selectivity MCRT / SW48: IS = CC50 MCRT ÷ CC50 SW48; for Index of selectivity PBMC / SW48: IS = CC50 PBMC ÷ CC50 SW48
Method: as §1, §2, §3, §4, §5

[5] = Ex vivo MTT cytotoxicity, healthy murine colorectal tissue; format: cell-based, BALB/c mice; settings: BALB/c, mouse, healthy murine colorectal tissue (MCRT) pieces, ex vivo, nontumoral control, MTT, 48 h, mean ± SD
Method: as §1, §2, §3, §4, §5

[6] = tested on: healthy murine colorectal tissue (MCRT); assay: as above; format: cell-based, BALB/c mice
Method: as §1, §2, §3, §4, §5

[7] = tested on: SW948 (Dukes' Type C, Grade III, premetastatic colorectal adenocarcinoma); assay: MTT cytotoxicity, SW948 cells; settings: for CC50: Homo sapiens, SW948, 48 h, SW948 cells, MTT, 48 h, mean ± SD; for Index of selectivity MCRT / SW948: IS = CC50 MCRT ÷ CC50 SW948; for Index of selectivity PBMC / SW948: IS = CC50 PBMC ÷ CC50 SW948
Method: as §1, §2, §3, §4, §5

[8] = tested on: SW620 (Dukes' Type C, Grade IV invasive colorectal adenocarcinoma); assay: MTT cytotoxicity, SW620 cells; settings: for CC50: Homo sapiens; for Index of selectivity MCRT / SW620: IS = CC50 MCRT ÷ CC50 SW620; for Index of selectivity PBMC / SW620: IS = CC50 PBMC ÷ CC50 SW620
Method: as §1, §2, §3, §4, §5

Row | SMILES | CC50 at 48 h [1] [µM] | cytotoxicity in words [2] | Index of selectivity SW48 vs. SW620 [3] | Index of selectivity SW948 vs. SW48 [3] | Index of selectivity SW948 vs. SW620 [3] | CC50 [4] [µM] | Index of selectivity MCRT / SW48 [4] | Index of selectivity PBMC / SW48 [4] | CC50 at 48 h [5] [µM] | cytotoxicity in words [6] | CC50 [7] [µM] | Index of selectivity MCRT / SW948 [7] | Index of selectivity PBMC / SW948 [7] | CC50 ([8]; 48 h) [µM] | Index of selectivity MCRT / SW620 [8] | Index of selectivity PBMC / SW620 [8] | cytotoxicity level (high/moderate/low) [4] | cytotoxicity level (high/moderate/low) [7] | cytotoxicity level (high/moderate/low) [8] | CC50 ([8]; SW-620) [µM]
1 | C[N+](C)(CI)CCCCC=C(c1ccccc1)c1ccccc1 [Compound 16] | 38.8 ± 5.6 | highly cytotoxic | 0.9 | 1.1 | 1.0 | 65.2 ± 3.7 | 2.1 | 0.6 | 135 ± 11.8 | noncytotoxic | 71 ± 12.4 | 1.9 | 0.6 | 72.9 ± 4.2 | 1.9 | 0.5 | – | – | – | –
2 | C[N+](C)(CI)CCCC=C(c1ccc(C(F)(F)F)cc1)c1ccc(C(F)(F)F)cc1 [Compound 9] | 30.6 ± 2.1 | – | 1.2 | 0.5 | 0.6 | 40.2 ± 6 | 5.1 | 0.8 | 206 ± 19.4 | – | 20 ± 4.7 | 10.3 | 1.5 | 32.2 ± 1 | 6.4 | 1.0 | – | – | – | –
3 | C[N+](C)(CI)CCCCC=C(c1cccc(C(F)(F)F)c1)c1cccc(C(F)(F)F)c1 [Compound 11] | 33.4 ± 2 | – | 1.2 | 1.0 | 1.2 | 22.1 ± 4 | 4.2 | 1.5 | 93.5 ± 13.9 | – | 21.5 ± 4.5 | 4.4 | 1.6 | 18.1 ± 3.7 | 5.2 | 1.9 | – | – | – | –
4 | C[N+](C)(CI)CCCC=C(c1ccccc1)c1ccccc1 [Compound 15] | 29.3 ± 1.4 | highly cytotoxic | 0.8 | 0.8 | 0.6 | 124 ± 2.3 | 2.1 | 0.2 | 256 ± 14 | moderate cytotoxicity | 98.2 ± 4.3 | 2.6 | 0.3 | 158 ± 2.3 | 1.6 | 0.2 | – | – | – | –
5 | C[N+](C)(C)CCCC=C(c1cccc(C(F)(F)F)c1)c1cccc(C(F)(F)F)c1 [Compound 7] | 46.3 ± 7.5 | – | 2.6 | 0.2 | – | 81.4 ± 9.4 | 1.5 | 0.57 | 123 ± 9.2 | – | 20 ± 0.8 | 6.2 | 2.3 | 31.1 ± 0.2 | 4.0 | 1.5 | – | – | – | –
6 | C[N+](C)(C)CCCC=C(c1cccc(F)c1)c1cccc(F)c1 [Compound 1] | 29.8 ± 2.4 | – | 1.7 | 2.0 | 3.3 | 105 ± 12 | 2.0 | 0.3 | 212 ± 4 | – | 211 ± 7.4 | 1.0 | 0.1 | 63.7 ± 15.3 | 3.3 | 0.5 | – | – | – | –
7 | O=c1[nH]cc(F)c(=O)[nH]1 [Compound 5-FU, 5-fluorouracil, reference compound] | 38.7 ± 7 | – | 0.9 | 1.1 | 1.0 | 30.3 | 33.9 | 1.4 | 945 ± 43.7 | – | 30.3 ± 5.2 | 31.2 | 1.3 | 30.3 ± 6 | 31.2 | 1.3 | High | High | High | 27.9
